Columns and labels:
Assay in all cases: kinase panel
Type in all cases: biochemical
BRK(h) = BRK(h) (Homo sapiens, UniProt Q13882)
How it was run: (§1)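 % inhibition read-out; kinome panel of 231 kinases; one analogue run on a selected 98-kinase subset only.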

CDK2/cyclinE(h) = CDK2/cyclinE(h) (Homo sapiens, UniProt P24941)
How it was run: as §1

CDK5/p35(h) = CDK5/p35(h) (Homo sapiens, UniProt Q00535)
How it was run: as §1

CK1δ(h) = CK1δ(h) (Homo sapiens, UniProt P48730)
How it was run: as §1

CK2(h) = CK2(h) (Homo sapiens, UniProt P68400)
How it was run: as §1

JNK1α1(h) = JNK1α1(h) (Homo sapiens, UniProt P45983)
How it was run: as §1

MKK7β(h) = biological target: T1, MKK7β(h) (Homo sapiens, UniProt O14733)
T1 sequence (O14733 1-419): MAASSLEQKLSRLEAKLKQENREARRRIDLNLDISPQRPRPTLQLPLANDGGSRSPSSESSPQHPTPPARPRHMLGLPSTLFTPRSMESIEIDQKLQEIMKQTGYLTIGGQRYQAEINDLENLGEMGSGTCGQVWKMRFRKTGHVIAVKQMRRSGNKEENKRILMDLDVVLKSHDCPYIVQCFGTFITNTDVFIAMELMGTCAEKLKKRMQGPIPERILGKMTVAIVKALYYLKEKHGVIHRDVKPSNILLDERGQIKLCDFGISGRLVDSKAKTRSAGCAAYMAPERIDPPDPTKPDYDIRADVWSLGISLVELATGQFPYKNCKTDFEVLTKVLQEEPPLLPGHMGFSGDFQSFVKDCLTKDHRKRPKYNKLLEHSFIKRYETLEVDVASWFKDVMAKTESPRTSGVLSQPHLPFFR
How it was run: as §1

PKCμ(h) = biological target: T2, PKCμ(h) (Homo sapiens, UniProt Q15139)
T2 sequence (Q15139 1-912): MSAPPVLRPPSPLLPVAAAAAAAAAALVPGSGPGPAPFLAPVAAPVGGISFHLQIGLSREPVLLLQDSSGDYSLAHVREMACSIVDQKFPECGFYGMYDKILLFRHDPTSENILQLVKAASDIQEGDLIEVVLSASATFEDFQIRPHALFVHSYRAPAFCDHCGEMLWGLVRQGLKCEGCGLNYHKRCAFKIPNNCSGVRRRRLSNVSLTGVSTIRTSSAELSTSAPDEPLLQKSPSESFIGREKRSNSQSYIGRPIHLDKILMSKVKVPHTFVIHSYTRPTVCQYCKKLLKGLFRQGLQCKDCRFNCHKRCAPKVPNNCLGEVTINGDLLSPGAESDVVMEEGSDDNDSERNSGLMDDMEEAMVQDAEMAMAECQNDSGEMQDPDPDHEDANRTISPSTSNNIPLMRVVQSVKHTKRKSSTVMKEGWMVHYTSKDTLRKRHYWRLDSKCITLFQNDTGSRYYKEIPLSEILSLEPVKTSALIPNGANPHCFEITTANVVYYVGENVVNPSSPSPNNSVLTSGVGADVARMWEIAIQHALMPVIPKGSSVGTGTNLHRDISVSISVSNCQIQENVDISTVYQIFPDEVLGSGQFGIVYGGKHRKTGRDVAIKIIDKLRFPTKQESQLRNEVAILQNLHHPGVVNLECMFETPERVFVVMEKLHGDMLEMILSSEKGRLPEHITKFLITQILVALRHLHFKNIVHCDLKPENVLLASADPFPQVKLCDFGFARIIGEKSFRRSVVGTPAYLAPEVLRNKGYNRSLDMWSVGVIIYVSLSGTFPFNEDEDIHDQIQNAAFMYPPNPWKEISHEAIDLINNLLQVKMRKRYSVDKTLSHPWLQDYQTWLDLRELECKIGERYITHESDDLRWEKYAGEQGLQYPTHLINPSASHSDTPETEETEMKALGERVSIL
How it was run: as §1

Plk1(h) = Plk1(h) (Homo sapiens, UniProt P53350)
How it was run: as §1

TBK1(h) = biological target: T3, TBK1(h) (Homo sapiens, UniProt Q9UHD2)
T3 sequence (Q9UHD2 1-729): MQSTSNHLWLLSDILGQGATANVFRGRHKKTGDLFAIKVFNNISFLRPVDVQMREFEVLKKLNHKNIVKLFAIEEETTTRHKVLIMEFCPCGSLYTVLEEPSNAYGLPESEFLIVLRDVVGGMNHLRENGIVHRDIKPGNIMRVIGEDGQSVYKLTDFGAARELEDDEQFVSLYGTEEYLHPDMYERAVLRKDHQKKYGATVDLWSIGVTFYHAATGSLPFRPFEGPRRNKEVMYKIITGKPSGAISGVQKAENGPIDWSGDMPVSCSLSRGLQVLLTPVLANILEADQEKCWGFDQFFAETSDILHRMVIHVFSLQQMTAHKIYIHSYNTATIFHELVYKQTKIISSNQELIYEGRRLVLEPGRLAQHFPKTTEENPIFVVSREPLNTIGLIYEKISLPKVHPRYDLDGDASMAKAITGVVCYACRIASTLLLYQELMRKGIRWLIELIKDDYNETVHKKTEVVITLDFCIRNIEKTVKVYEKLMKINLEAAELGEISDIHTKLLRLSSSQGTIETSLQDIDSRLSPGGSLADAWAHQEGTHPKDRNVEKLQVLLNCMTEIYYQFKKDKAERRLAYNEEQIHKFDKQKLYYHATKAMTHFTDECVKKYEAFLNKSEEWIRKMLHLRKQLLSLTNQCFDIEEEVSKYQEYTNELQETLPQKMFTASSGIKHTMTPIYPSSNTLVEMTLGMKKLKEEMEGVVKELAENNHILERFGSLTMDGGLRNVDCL
How it was run: as §1

ZIPK(h) = ZIPK(h) (Homo sapiens, UniProt O43293)
How it was run: as §1

c-RAF(h) = c-RAF(h) (Homo sapiens, UniProt P04049)
How it was run: as §1

mTOR(h) = mTOR(h) (Homo sapiens, UniProt P42345)
How it was run: as §1

Plk1(h), sequence (P53350 whole entry): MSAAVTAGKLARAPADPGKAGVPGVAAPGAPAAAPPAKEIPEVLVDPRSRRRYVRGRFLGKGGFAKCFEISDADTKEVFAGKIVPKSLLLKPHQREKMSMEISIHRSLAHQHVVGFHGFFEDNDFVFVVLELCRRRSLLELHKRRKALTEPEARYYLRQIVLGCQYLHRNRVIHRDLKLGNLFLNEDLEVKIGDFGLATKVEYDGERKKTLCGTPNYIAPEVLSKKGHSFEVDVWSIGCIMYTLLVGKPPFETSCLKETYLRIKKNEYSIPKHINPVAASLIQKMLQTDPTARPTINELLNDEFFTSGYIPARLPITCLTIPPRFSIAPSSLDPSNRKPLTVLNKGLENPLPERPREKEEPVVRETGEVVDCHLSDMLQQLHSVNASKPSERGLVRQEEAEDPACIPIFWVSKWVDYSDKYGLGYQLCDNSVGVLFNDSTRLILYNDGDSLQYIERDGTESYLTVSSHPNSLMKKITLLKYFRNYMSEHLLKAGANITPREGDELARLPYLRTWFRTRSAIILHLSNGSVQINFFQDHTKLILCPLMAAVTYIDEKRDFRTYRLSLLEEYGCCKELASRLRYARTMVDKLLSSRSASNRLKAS
CK2(h), sequence (P68400 whole entry): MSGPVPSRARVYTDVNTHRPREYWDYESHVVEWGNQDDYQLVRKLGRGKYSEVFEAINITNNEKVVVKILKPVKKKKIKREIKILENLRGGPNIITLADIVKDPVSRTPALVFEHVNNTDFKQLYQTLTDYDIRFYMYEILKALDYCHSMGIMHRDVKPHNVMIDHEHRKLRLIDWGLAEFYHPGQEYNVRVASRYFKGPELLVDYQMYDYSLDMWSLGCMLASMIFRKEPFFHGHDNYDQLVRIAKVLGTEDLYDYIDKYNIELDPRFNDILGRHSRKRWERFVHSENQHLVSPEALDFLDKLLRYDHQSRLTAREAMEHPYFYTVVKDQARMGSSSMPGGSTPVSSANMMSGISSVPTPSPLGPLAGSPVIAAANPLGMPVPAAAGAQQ
CK2(h), sequence (P67870 whole entry partner): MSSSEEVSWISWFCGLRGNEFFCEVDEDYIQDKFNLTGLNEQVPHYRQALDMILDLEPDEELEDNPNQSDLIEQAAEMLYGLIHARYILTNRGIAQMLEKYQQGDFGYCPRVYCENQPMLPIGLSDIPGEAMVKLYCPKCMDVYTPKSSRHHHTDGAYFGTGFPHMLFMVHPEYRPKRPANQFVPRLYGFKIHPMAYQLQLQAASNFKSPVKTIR
ZIPK(h), sequence (O43293 whole entry): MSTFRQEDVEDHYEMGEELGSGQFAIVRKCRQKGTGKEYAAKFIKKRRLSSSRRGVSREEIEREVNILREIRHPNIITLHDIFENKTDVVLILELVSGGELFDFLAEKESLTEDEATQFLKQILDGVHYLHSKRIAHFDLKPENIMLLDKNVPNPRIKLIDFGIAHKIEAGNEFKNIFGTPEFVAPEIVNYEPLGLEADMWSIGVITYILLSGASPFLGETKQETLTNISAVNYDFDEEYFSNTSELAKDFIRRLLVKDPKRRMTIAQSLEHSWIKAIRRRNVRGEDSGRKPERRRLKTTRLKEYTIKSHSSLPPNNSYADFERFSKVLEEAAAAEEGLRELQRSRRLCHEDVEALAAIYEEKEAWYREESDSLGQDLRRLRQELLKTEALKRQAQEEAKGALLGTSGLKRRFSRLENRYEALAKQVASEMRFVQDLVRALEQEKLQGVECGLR
CDK5/p35(h), sequence (Q00535 whole entry): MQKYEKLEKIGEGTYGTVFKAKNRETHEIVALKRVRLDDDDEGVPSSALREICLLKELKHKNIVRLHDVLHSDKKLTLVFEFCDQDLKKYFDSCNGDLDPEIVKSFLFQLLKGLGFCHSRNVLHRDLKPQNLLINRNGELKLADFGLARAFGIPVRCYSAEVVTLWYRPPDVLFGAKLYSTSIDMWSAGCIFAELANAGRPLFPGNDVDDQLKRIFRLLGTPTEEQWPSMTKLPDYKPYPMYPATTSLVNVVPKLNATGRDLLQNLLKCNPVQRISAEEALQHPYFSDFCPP
CDK5/p35(h), sequence (Q15078 whole entry partner): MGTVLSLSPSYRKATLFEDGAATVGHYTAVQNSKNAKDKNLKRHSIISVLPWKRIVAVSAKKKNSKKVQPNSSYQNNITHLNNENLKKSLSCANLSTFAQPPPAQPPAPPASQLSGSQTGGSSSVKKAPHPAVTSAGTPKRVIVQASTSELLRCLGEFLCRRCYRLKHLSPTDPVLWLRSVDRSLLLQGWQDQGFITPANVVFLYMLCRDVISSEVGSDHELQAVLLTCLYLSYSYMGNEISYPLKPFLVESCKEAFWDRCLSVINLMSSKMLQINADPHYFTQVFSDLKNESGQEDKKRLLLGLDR
c-RAF(h), sequence (P04049 whole entry): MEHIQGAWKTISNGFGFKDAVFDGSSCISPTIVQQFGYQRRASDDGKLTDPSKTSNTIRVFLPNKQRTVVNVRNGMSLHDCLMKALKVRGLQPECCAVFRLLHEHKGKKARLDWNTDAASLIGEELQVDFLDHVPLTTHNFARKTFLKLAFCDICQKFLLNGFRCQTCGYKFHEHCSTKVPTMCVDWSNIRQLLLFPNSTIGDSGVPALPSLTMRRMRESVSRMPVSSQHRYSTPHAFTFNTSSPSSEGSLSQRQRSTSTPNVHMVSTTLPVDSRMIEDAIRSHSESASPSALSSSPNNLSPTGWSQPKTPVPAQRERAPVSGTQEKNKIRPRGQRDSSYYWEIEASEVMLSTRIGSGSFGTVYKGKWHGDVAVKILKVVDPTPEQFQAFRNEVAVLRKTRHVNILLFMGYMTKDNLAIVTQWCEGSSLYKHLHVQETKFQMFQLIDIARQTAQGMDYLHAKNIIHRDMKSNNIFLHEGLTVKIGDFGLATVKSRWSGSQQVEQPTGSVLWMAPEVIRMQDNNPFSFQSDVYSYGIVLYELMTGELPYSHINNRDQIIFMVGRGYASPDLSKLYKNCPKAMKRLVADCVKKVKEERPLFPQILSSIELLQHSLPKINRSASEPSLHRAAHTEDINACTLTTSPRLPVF
CK1δ(h), sequence (P48730 whole entry): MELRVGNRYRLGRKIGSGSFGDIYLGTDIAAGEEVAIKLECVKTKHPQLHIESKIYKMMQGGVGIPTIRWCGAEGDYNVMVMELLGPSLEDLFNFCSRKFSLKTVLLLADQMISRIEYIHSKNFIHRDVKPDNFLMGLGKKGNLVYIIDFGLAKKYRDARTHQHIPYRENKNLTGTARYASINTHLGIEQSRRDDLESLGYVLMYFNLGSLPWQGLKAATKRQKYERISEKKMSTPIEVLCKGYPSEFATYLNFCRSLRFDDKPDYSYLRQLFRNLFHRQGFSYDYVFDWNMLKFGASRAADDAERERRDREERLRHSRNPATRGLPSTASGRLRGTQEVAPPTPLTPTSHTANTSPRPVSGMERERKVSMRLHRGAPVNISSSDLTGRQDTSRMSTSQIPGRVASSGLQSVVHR
JNK1α1(h), sequence (P45983 1-384 isoform P45983-2): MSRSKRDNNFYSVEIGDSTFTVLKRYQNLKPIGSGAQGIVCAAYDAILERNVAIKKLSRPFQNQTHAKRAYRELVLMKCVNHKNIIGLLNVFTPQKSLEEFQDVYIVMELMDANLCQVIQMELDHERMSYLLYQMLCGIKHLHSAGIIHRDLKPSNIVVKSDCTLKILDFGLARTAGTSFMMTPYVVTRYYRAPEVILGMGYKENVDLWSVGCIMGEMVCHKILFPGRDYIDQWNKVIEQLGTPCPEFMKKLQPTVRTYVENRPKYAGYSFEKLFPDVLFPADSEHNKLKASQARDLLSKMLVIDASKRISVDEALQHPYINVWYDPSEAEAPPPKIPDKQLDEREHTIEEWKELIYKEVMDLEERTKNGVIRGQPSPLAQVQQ
BRK(h), sequence (Q13882 whole entry): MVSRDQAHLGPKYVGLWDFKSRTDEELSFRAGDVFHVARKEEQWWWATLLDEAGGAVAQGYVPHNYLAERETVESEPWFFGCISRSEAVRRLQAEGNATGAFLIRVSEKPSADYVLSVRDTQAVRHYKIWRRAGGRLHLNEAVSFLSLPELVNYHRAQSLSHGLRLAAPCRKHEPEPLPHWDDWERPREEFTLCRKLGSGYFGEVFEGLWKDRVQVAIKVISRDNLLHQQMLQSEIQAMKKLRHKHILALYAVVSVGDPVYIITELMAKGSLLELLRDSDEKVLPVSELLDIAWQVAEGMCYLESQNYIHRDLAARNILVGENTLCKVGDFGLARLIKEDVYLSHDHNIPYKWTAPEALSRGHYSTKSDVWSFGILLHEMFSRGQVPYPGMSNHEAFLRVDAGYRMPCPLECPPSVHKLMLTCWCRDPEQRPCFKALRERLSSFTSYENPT

| inhibition at 1 µM (BRK(h)) [%] | inhibition at 1 µM (CDK2/cyclinE(h)) [%] | inhibition at 1 µM (CDK5/p35(h)) [%] | inhibition at 1 µM (CK1δ(h)) [%] | inhibition at 1 µM (CK2(h)) [%] | inhibition at 1 µM (JNK1α1(h)) [%] | inhibition at 1 µM (MKK7β(h)) [%] | inhibition at 1 µM (PKCμ(h)) [%] | inhibition at 1 µM (Plk1(h)) [%] | inhibition at 1 µM (TBK1(h)) [%] | inhibition at 1 µM (ZIPK(h)) [%] | inhibition at 1 µM (c-RAF(h)) [%] | inhibition at 1 µM (mTOR(h)) [%] | Compound |
| --- | --- | --- | --- | --- | --- | --- | --- | --- | --- | --- | --- | --- | --- |
| 17 | 37 | 96 | 14 | -5 | 12 | 99 | 18 | -1 | 22 | 0 | 20 | 8 | Nc1n[nH]c2ccc(-c3ccnc4[nH]c(-c5cccc(OCc6ccccc6)c5)cc34)cc12 [Compound 5r [SU1261]] |
| 8 | 29 | 90 | 5 | 2 | 25 | 11 | -9 | 2 | 2 | 1 | 2 | 0 | Nc1n[nH]c2ccc(-c3ccnc4[nH]c(-c5ccnc(OCc6ccccc6)c5)cc34)cc12 [Compound 6g [SU1349]] |
| 46 | 86 | 101 | 58 | -7 | 80 | 80 | 21 | -5 | 81 | -7 | 29 | 10 | Nc1n[nH]c2ccc(-c3ccnc4[nH]c(-c5ccccc5)cc34)cc12 [Compound 4] |

Reference: PMC11314561, “Design and Synthesis of Novel Aminoindazole-pyrrolo[2,3-b]pyridine Inhibitors of IKKα That Selectively Perturb Cellular Non-Canonical NF-κB Signalling” (Molecules, 2024)
